Data reported in publication PMC6197257 (Scientific Reports, 2018).

Test system: anti-3MGA MAb
Assay: competitive ELISA cross-reactivity of anti-3MGA MAb
Assay type: binding, mouse
Conditions: CR = IC50 for 3MGA / IC50 for compound x 100, 3MGA calibrated as 100%
Experimental: To activate the hapten 3MGA for the preparation of anti-3MGA MAb, the 3MGA-KLH conjugate was synthesized by using a model based on the carbodiimide method with both EDC and NHS reagents. 3MGA-HSA was also prepared using the same method, and was used for ELISA. We also evaluated the hapten number of the 3MGA-HSA conjugate by MALDI-TOF MS analysis. […] The MAb was developed by using the same methods described in our previous study. Hybridomas secreting antibodies recognizing 3MGA were selected by ELISA and then subcloned 4 times by the limited dilution method. […] The heavy chain of the obtained MAb was classified using a Calbiochem mouse hybridoma subisotyping kit (EMD Biosciences, Darmstadt, Germany), whereas the light chain was estimated using an IsoQuick^TM mouse monoclonal isotyping strip (Sigma) according to the manufacturer’s instructions.
3MGA-HSA (1 µg/ml in 50 mM carbonate buffer, pH 9.6) was added into a 96-well plate (Nagel Nunc, Penfield, NY, USA) (100 µl/well), and incubated at 37 °C for 1 h. After the removal of 3MGA-HSA, the wells were washed with 200 µl/well PBS containing 0.05% Tween 20 (T-PBS) for 3 times. The wells were incubated with 300 µl/well of 5% skim milk (Morinaga-milk, Tokyo, Japan) at 4 °C overnight. […] After the wells were washed with T-PBS 3 times, HRP-labeled goat anti-mouse IgG (Fc specific) antibody (1:1,000 dilution with T-PBS) was added into the wells (100 µl/well), and the plate was incubated at 37 °C for 1 h. Next, the wells were washed with T-PBS 3 times, the substrate solution (0.006% H2O2 in 200 mM citrate buffer, pH 4.0/H2O/0.6 mg/ml ABTS 10:9:1) was added into the wells (100 µl/well), and incubated at room temperature for 15 min.

Compound	cross-reactivity of anti-3MGA MAb
CC(C)=CCC[C@](C)(O[C@@H]1O[C@H](CO[C@@H]2O[C@H](CO)[C@@H](O)[C@H](O)[C@H]2O)[C@@H](O)[C@H](O)[C@H]1O)[C@H]1CC[C@]2(C)[C@@H]1[C@H](O)C[C@@H]1[C@@]3(C)CC[C@H](O[C@@H]4O[C@H](CO)[C@@H](O)[C@H](O)[C@H]4O[C@@H]4O[C@H](CO)[C@@H](O)[C@H](O)[C@H]4O)C(C)(C)[C@@H]3CC[C@]12C [ginsenoside Rb1]	less than 0.02%
C[C@@]12C[C@@]3(O)O[C@@H](O1)[C@]1(COC(=O)c4ccccc4)[C@H]3C[C@@]12O[C@@H]1O[C@H](CO)[C@@H](O)[C@H](O)[C@H]1O [paeoniflorin]	less than 0.02%
C[C@H]1O[C@@H](O[C@H]2CC[C@@]3(C)[C@@H](CC[C@]4(C)[C@@H]3C=C[C@]35OC[C@@]6(CCC(C)(C)C[C@H]63)[C@@H](O)C[C@]54C)[C@]2(C)CO)[C@H](O)[C@@H](O[C@@H]2O[C@H](CO)[C@@H](O)[C@H](O)[C@H]2O)[C@H]1O [saikosaponin a]	less than 0.02%
CC1(C)[C@@H](O[C@H]2O[C@H](C(=O)O)[C@@H](O)[C@H](O)[C@H]2O[C@@H]2O[C@H](C(=O)O)[C@@H](O)[C@H](O)[C@H]2O)CC[C@]2(C)[C@H]3C(=O)C=C4[C@@H]5C[C@@](C)(C(=O)O)CC[C@]5(C)CC[C@@]4(C)[C@]3(C)CC[C@@H]12 [GL, glycyrrhizin]	0.22%
C[C@]1(C(=O)O)CC[C@]2(C)CC[C@]3(C)C(=CC(=O)[C@@H]4[C@@]5(C)CC[C@H](O[C@@H]6O[C@H](C(=O)O)[C@@H](O)[C@H](O)[C@H]6O[C@@H]6O[C@H](C(=O)O)[C@@H](O)[C@H](O)[C@H]6O)[C@](C)(CO)[C@@H]5CC[C@]43C)[C@@H]2C1 [licorice saponin G2]	less than 0.02%
O=C1C[C@@H](c2ccc(O[C@@H]3O[C@H](CO)[C@@H](O)[C@H](O)[C@H]3O)cc2)Oc2cc(O)ccc21 [liquiritin]	less than 0.02%
